Measured values as given in patent US20250082633A1, “COMPOUNDS AND METHODS FOR MODULATING SPLICING” (REMIX THERAPEUTICS INC., priority 2021, published 2025).

Legend:
Target C = assay: HiBit protein abundance assay, Target C; assay type: cell-based; details: Homo sapiens; K562 HiBiT-modified cells, 24 hours, luminescence
Description: (§1) Compounds described herein were used to screen for effects on quantitative protein abundance using a HiBit assay system (Promega). Quantitative protein abundance was determined by measuring the protein levels of HiBit-tagged protein targets expressed in cell culture via luminescence using the Nano-Glo HiBiT Lytic Detection System, which uses a split complementation assay format to reconstitute NanoBiT enzyme to generate a luminescent signal. A protein abundance assay was developed such that endogenous protein targets could be modified with the HiBiT peptide tag and their abundance could be assessed after compound treatment. Briefly, K562 cell lines containing a HiBiT-modification were treated with various compounds described herein (e.g., compounds of Formulas (I), (II), or (III)). After treatment for 24 hours, the protein abundance of a specific target was determined by measuring luminescence. • Promega Nano-Glo HiBiT Lytic Detection System (cat #N3030) • Corning 384-well TC-treated microplates (cat #3570) • Synthego Engineered Cells Knock-In Clones Cells were maintained in IMDM with 10% FBS. Before the assay, cells were diluted with phenolphthalein-free growth media (IMDM+1% FBS media) and were seeded in a 384-well plate at a density of 10000 cells/well (for each cell line listed in Table 6). Each compound was prepared as a 10-point 3-fold serial dilution in DMSO with the top dose at a final concentration of 10 μM in the well. Unmodified K562 cells were added at the previously specified density with DMSO to serve as an assay baseline and positive control (PC) and DMSO only with the respective modified cell lines was added to the negative control (NC) columns. Final DMSO concentration was kept at or below 0.25%. Treated cell plates were placed in an incubator at 37° C. with 5% CO2 for 24 hours. After 24 hours, 25 μL of Complete HiBit Lytic reagent was added to each well at room temperature (e.g. one plate requiring 10 mL Lytic Buffer, 100 μL LgBiT Protein, 200 μL Lytic Substrate), shaken for 5 minutes at 600 RPM, then left to sit for 10 minutes for signal to stabilize before reading on a Spark Cyto plate reader (Tecan) with a 500 ms measurement time. To determine compound effects on protein abundance of each target in Table 6, the percent response for each respective cell line was calculated at each compound concentration as follows: For the normalized response at each concentration, a four-parameter logistical regression was fit to the data and the response was interpolated at the 50% value to determine a concentration for protein abundance at 50% (IC50) the untreated control.

[1] = system: HiBiT-tagged HTT protein in K562 cells; assay: HiBit protein abundance assay, HTT; assay type: cell-based, human; details: K562 HiBiT-modified cells, 24 hours, luminescence
Description: as §1, with “Clones [table]” for “Clones”

| Compound | IC50 (Target C) [nM] | IC50 [1] [nM] |
| --- | --- | --- |
| Cc1cn2nc(-c3cc(F)c4nn([C@H]5CCNC[C@@H]5F)cc4c3)cc(C)c2n1 [Compound 167, 6-(7-fluoro-2-((3S,4S)-3-fluoropiperidin-4-yl)-2H-indazol-5-yl)-2,8-dimethylimidazo[1,2-b]pyridazine] | 100 to 1000 | 100 to 1000 |
| Cc1cn2nc(-c3cc(F)c4nn([C@@H]5CCNC[C@H]5F)cc4c3)cc(C)c2n1 [Compound 168, 6-(7-fluoro-2-((3R,4R)-3-fluoropiperidin-4-yl)-2H-indazol-5-yl)-2,8-dimethylimidazo [1,2-b]pyridazine] | 100 to 1000 | < 100 |
| Cc1cn2nc(-c3cc(F)c4nn(C5CCN(CCO)C6(CC6)C5)cc4c3)cc(C)c2n1 (stereo not drawn) [Compound 180, 2-[7-[5-(2,8-dimethylimidazo[1,2-b]pyridazin-6-yl)-7-fluoro-indazol-2-yl]-4-azaspiro[2.5]octan-4-yl]ethanol] | < 100 | < 100 |
| Cc1cn2nc(-c3cc(F)c4nn(C5CCN(C6CCC6)C6(CC6)C5)cc4c3)cc(C)c2n1 (stereo not drawn) [Compound 186, 6-[2-(4-cyclobutyl-4-azaspiro[2.5]octan-7-yl)-7-fluoro-indazol-5-yl]-2,8-dimethyl-imidazo[1,2-b]pyridazine] | < 100 | < 100 |
| Cc1cn2nc(-c3cc(F)c4nn(C5CCNC6(CCC6)C5)cc4c3)cc(C)c2n1 (stereo not drawn) [Compound 189, 6-[2-(5-azaspiro[3.5]nonan-8-yl)-7-fluoro-indazol-5-yl]-2,8-dimethyl-imidazo[1,2-b]pyridazine] | < 100 | < 100 |
| Cc1cn2nc(-c3ccc4nn(C5CCNCC5)cc4c3)cc(C)c2n1 [Compound 192, 2,8-dimethyl-6-[2-(4-piperidyl)indazol-5-yl]imidazo[1,2-b]pyridazine] | 100 to 1000 | < 100 |

Further lines, results first:

| IC50 (Target C) [nM] | IC50 [1] [nM] | Compound |
| --- | --- | --- |
| < 100 | < 100 | Cc1cn2nc(-c3cc(F)c4nn(C5CCNC6(CC6)C5)cc4c3)cc(C)c2n1 (stereo not drawn) [Compound 171, 6-[2-(4-azaspiro[2.5]octan-7-yl)-7-fluoro-indazol-5-yl]-2,8-dimethyl-imidazo[1,2-b]pyridazine] |
| < 100 | < 100 | Cc1cn2nc(-c3cc(F)c4nn([C@H]5CCNC6(CC6)C5)cc4c3)cc(C)c2n1 [Compound 172] |
| < 100 | < 100 | Cc1cn2nc(-c3cc(F)c4nn([C@@H]5CCNC6(CC6)C5)cc4c3)cc(C)c2n1 [Compound 173] |
| < 100 | < 100 | Cc1cn2nc(-c3cc(F)c4nn(C5CCN(C)C6(CC6)C5)cc4c3)cc(C)c2n1 (stereo not drawn) [Compound 174, 6-[7-fluoro-2-(4-methyl-4-azaspiro[2.5]octan-7-yl)indazol-5-yl]-2,8-dimethyl-imidazo[1,2-b]pyridazine] |
| < 100 | < 100 | CCN1CCC(n2cc3cc(-c4cc(C)c5nc(C)cn5n4)cc(F)c3n2)CC12CC2 (stereo not drawn) [Compound 177, 6-[2-(4-ethyl-4-azaspiro[2.5]octan-7-yl)-7-fluoro-indazol-5-yl]-2,8-dimethyl-imidazo[1,2-b]pyridazine] |
| < 100 | < 100 | Cc1cn2nc(-c3cc(F)c4nn(C5CCN(CC6CC6)C6(CC6)C5)cc4c3)cc(C)c2n1 (stereo not drawn) [Compound 183, 6-[2-[4-(cyclopropylmethyl)-4-azaspiro[2.5]octan-7-yl]-7-fluoro-indazol-5-yl]-2,8-dimethyl-imidazo[1,2-b]pyridazine] |
